These results are taken from patent publication US5312919A, “Photooxidation products and derivatives thereof of merocyanine-540, their preparation and uses” (priority 1992, dated 1994).

The structures appear in SMILES notation. Like-named read-outs stand apart in the source and are kept apart here.

Series [1] can be described thus: Cytotoxicity on normal human peripheral blood mononuclear cells (trypan blue dye exclusion). The conditions noted are these: human, peripheral blood mononuclear cells, overnight, 37° C., read-out: % cell kill (mean ± S.E.M.). It is filed as cell-based. As for the experimental part:
(§1) Preactivated MC 540 is abbreviated as pMC 540.
(§2) Merocil and Merodantoin were dissolved in cremophor EL whereas pMC 540 was prepared in 10% aqueous ethanol. […] Fresh human peripheral mononucleas cells (1×10^6 cells/ml) were treated with indicated concentration of compounds. After overnight incubation at 37° C., cell viability was determined by trypan blue dye exclusion method.

For series [2], the system named is normal human peripheral blood mononuclear cells. The description is as above. It is filed as cell-based. The conditions noted are these: doses of Table 1. As for the experimental part: as §1, §2

As to `CCCCN1C(=O)C(=O)N(CCCC)C1=S` [Merodantoin, N,N'-Dibutyl-2-thio-4,5-imidazolindion], the cytotoxicity in series [1] (1.56 μg/ml) was 4.33 ± 1.07%; in series [1] (3.13 μg/ml), 3.67 ± 0.51%; in series [1] (6.25 μg/ml), 5.33 ± 0.84%; in series [1] (12.5 μg/ml), 11.3 ± 1.83%; in series [1] (25.0 μg/ml) it was 25.7 ± 0.51%. In addition, in series [2], the “toxicity to normal human peripheral blood mononuclear cells” value is reported as “relatively non-toxic”.
